This note sets out measurements from patent publication US20260184707A1, “PHARMACEUTICAL COMPOUNDS FOR THE TREATMENT OF COMPLEMENT MEDIATED DISORDERS” (ALEXION PHARMACEUTICALS, INC., priority 2022, published 2026).

Structures are written as SMILES. pIC50: −log10 of the molar value.

This experiment concerns the target T1, Human complement C1s enzyme (Homo sapiens, UniProt P09871).
T1 construct: purified from human serum, Complement Technology, Inc; purchased Complement Technology, Inc; host or cells: human serum (plasma-derived native protein)
T1 sequence (P09871 438-688 limits assumed): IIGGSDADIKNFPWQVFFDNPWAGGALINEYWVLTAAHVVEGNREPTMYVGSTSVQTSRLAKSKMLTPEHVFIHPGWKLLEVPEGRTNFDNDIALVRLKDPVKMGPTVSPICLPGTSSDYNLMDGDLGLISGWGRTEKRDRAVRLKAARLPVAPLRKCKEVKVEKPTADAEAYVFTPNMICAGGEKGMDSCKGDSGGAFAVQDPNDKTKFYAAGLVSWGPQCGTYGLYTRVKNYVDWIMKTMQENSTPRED
T1 sequence (P09871 16-437 partner limits assumed): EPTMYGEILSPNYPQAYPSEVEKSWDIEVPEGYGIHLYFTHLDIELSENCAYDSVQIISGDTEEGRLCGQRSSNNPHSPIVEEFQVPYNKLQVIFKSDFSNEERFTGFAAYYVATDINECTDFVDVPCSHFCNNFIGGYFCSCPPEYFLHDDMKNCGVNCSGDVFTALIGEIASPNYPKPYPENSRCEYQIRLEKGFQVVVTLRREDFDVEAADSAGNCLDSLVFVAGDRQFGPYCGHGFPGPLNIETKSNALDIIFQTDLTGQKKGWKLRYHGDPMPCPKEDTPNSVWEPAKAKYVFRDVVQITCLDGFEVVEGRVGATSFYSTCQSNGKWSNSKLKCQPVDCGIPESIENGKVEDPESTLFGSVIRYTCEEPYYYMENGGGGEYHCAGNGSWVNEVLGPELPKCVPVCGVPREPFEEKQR
The experiment can be described thus: Human C1s enzyme assay. Format: biochemical. The note with it: human complement C1s enzyme 1.16 nM, substrate Z-L-Lys-SBzl, A405; read-out: IC50 (Stars). A digest of the protocol:
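Serum-purified human C1s (1.16 nM final) preincubated 5 min at room temperature with compound in 50 mM Tris, 1 M NaCl, pH 7.5. Z-L-Lys-SBzl and DTNB added at 100 μM each; A405 recorded every 30 s. IC50 from nonlinear regression of reaction rates versus compound concentration.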

The term pIC50 denotes the negative decadic logarithm of the IC50, by convention in mol/L. Take `O=C(Cn1c(-c2ccc(OCc3ccccc3)cc2)ncc(NCc2ccc3oc4ccccc4c3c2)c1=O)NCc1cc2cnccc2[nH]1` [Compound 155, N-((1H-pyrrolo[3,2-c]pyridin-2-yl)methyl)-2-(2-(4-(benzyl-oxy)phenyl)-5-((dibenzo[b,d]furan-2-ylmethyl)amino)-6-oxopyrimidin-1(6H)-yl)acet-amide]: the pIC50 is more than 7.00.

Turning to `O=C(Cn1c(-c2ccccc2)ncc(NC(=O)c2ccc(C(=O)c3ccccc3)cc2)c1=O)NCc1cc2cnccc2[nH]1` [Compound 73, N-(1-(2-(((1H-pyrrolo[3,2-c]pyridin-2-yl)methyl)amino)-2-oxoethyl)-6-oxo-2-phenyl-1,6-dihydropyrimidin-5-yl)-4-benzoylbenzamide], the pIC50 is more than 7.00.

`O=C(Cn1c(-c2ccccc2)cnc(NC(=O)c2ccc(-c3ccccc3)cc2)c1=O)NCc1cc2cnccc2[nH]1` [Compound 100, N-(4-(2-(((1H-pyrrolo[3,2-c]pyridin-2-yl)methyl)amino)-2-oxoethyl)-3-oxo-5-phenyl-3,4-dihydropyrazin-2-yl)-[1,1′-biphenyl]-4-carboxamide]: the pIC50 was more than 7.00.

Turning to `O=C(Cn1c(-c2ccccc2)ncc(NCCCOc2ccccc2)c1=O)NCc1cc2cnccc2[nH]1` [Compound 7, N-((1H-pyrrolo[3,2-c]pyridin-2-yl)methyl)-2-(6-oxo-5-((3-phenoxypropyl)amino)-2-phenylpyrimidin-1(6H)-yl)-acetamide], the pIC50 is more than 7.00.

For the molecule `C[C@@H](Nc1ncc(C2CCCC2)n(CC(=O)NCc2cc3cnccc3[nH]2)c1=O)c1ccc2oc3ccccc3c2c1` [Compound 420, (R)-N-((1H-pyrrolo[3,2-c]pyridin-2-yl)methyl)-2-(6-cyclopentyl-3-((1-(dibenzo [b,d]furan-2-yl)ethyl)amino)-2-oxopyrazin-1(2H)-yl)acet-amide], the pIC50 is more than 7.00.

Turning to `Cc1ncc(N[C@H](C)c2ccc3oc4ccccc4c3c2)c(=O)n1C(C)C(=O)NCc1cc2cnccc2[nH]1` (stereo partly drawn) [Compound 404, N-((1H-pyrrolo[3,2-c]pyridin-2-yl)methyl)-2-(5-(((R)-1-(dibenzo[b,d]furan-2-yl)ethyl)-amino)-2-methyl-6-oxopyrimi-din-1(6H)-yl)propanamide], the pIC50 was less than 6.00.

`C[C@@H](Nc1cnc(N2CCC3(CC2)OCCO3)n(CC(=O)NCc2cc3cnccc3[nH]2)c1=O)c1ccc2oc3ccccc3c2c1` [Compound 382, (R)-N-((1H-pyrrolo[3,2-c]pyridin-2-yl)methyl)-2-(5-((1-(dibenzo[b,d]furan-2-yl)ethyl)-amino)-6-oxo-2-(1,4-dioxa-8-azaspiro[4.5]decan-8-yl)pyr-imidin-1(6H)-yl)acetamide]: the pIC50 was more than 7.00.

As for `C[C@@H](Nc1cnc(-c2ccccc2F)n(CC(=O)NCc2cc3cnccc3[nH]2)c1=O)c1ccc2c(c1)oc1ccccc12` [Compound 350, (R)—N-((1H-pyrrolo[3,2-c]pyridine-2-yl)methyl)-2-(5-((1-(dibenzo[b,d]furan-3-yl)ethyl)amino)-2-(2-fluorophenyl)-6-oxopyrimidin-1(6H)-yl)acetamide], the pIC50 is more than 7.00.

For the molecule `O=C(Cn1c(N2CCOCC2)ncc(NC(=O)c2csc(-c3ccccc3)n2)c1=O)NCc1cc2cnccc2[nH]1` [Compound 411, N-(1-(2-(((1H-pyrrolo[3,2-c]pyridin-2-yl)methyl)amino)-2-oxoethyl)-2-morpholino-6-oxo-1,6-dihydropyrimidin-5-yl)-2-phenylthiazole-4-carbox-amide], the pIC50 was more than 7.00.

With `C[C@@H](Nc1cnc(N2CCC(F)(F)CC2)n(CC(=O)NCc2cc3cnccc3[nH]2)c1=O)c1ccc2oc3ccccc3c2c1` [Compound 379, (R)-N-((1H-pyrrolo[3,2-c]pyridin-2-yl)methyl)-2-(5-((1-(dibenzo[b,d]furan-2-yl)ethyl)-amino)-2-(4,4-difluoropiperi-din-1-yl)-6-oxopyrimidin-1(6H)-yl)acetamide], the pIC50 was less than 6.00.
